Measurements from patent EP1430879A2, “Arylsulfatase inhibitors in deodorants and antiperspirants” (Henkel Kommanditgesellschaft auf Aktien, priority 2002, dated 2004).

Molecular target: T1, Arylsulfatase (EC 3.1.6.1) aus Aerobacter aerogenes (Klebsiella aerogenes, UniProt P20713)
T1 construct: purchased Sigma S-1629
T1 sequence (P20713 21-464): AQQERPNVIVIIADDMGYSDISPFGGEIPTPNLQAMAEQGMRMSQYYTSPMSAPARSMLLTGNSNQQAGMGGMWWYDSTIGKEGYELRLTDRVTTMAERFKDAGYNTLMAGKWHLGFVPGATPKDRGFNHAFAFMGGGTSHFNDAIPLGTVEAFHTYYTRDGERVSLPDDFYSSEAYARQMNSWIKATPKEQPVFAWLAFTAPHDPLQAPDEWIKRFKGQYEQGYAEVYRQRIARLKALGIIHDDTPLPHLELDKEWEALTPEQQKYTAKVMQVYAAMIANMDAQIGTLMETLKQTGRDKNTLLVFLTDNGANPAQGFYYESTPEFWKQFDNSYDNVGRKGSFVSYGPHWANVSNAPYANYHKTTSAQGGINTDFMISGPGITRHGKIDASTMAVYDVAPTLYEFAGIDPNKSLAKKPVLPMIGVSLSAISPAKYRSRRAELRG
Test: Arylsulfatase enzyme inhibition test (Sigma sulfatase assay S-1629, p-nitrophenyl sulfate substrate, spectrophotometric at 420 nm)
Format: biochemical
Settings: raw material as supplied in aqueous solution; 187 mM Tris/HCl pH 7,1, 8 mM pNPS, 0,05 U/ml Arylsulfatase, 37°C
Source text: Da die hautrelevante Arylsulfatase nicht zur Verfügung stand, diente eine handelsübliche Arylsulfatase (EC 3.1.6.1) aus Aerobacter aerogenes als Modellenzym, um die Hemmwirkung der erfindungsgemäß verwendeten Inhibitoren zu testen. Die Tests wurden mit dem Sulfatase-Enzymassay Product No. S-1629 von Sigma gemäß den Angaben im Sigma Quality Control Test Procedure-Datenblatt durchgeführt. Als Referenz-Inhibitoren dienten Ascorbinsäure und ATP.
Zur Auswertung wurde die Arylsulfatase-katalysierte Bildung von p-Nitrophenol aus dem Substrat p-Nitrophenylsulfat (pNPS) spektrophotometrisch (λ = 420 nm) verfolgt. Die Reaktionslösungen von 1000 µl, die auf eine Reaktionstemperatur von 37°C temperiert wurden, enthielten 187 mM Tris/HCl (pH 7,1), 8 mM pNPS und eine Startkonzentration von 0,05 U/ml Arylsulfatase. Die Einheit U der Enzymaktivität wurde so definiert, dass 1 U Sulfatase 1,0 µmol pNPS pro Minute bei pH 7,1 und 37°C hydrolysiert. Die Testdurchführung ist auch offenbart bei H.R. Fowler und D. H. Rammler, Biochemistry 3, 230, 1964.
Die Reaktion wurde durch Zugabe des Enzyms gestartet und der Anstieg der Absorption bei λ = 420 nm über 5 Minuten verfolgt. Der lineare Anstieg der Absorption (A) pro Zeiteinheit (t) ist hierbei ein Maß für die Aktivität des Enzyms (ΔA/Δt). Die Aktivität des Enzyms in Abwesenheit eines Inhibitors, (ΔA1/Δt1 ), wurde als Referenz gleich 100% gesetzt. […]

SMILES: COc1cc2c(cc1O)CCC(C)(C)O2 [Lipochroman-6, 3,4-Dihydro-7-methoxy-2,2-dimethyl-2H-1-benzopyran-6-ol]
- Konzentration mit einer inhibierenden Wirkung von 50 %: 0,1 Gew.-% Rohstoff tel quel in wässriger Lösung
